From ChEMBL document CHEMBL1137084, “Synthesis of a 5-methylindolyl-containing macrocycle that displays ultrapotent Grb2 SH2 domain-binding affinity” (J Med Chem, 2004) come the findings set out here.

Assay [1] deals with T1, Growth factor receptor-bound protein 2 (Homo sapiens, UniProt P62993). As to the kind of experiment: In vitro binding affinity in whole cells for Grb2 SH2 domain. The class given is cell-based.
In assay [2] the target is T1, Growth factor receptor-bound protein 2. As to the kind of experiment: In vitro binding affinity in extracellular ELISA-based assay for Grb2 SH2 domain. On the technique in general: In an ELISA, binding on a coated surface is turned into a signal by an enzyme label.
In the next assay the test system is MDA-MB-453. As to the kind of experiment: Inhibition of growth-factor-stimulated MDA-MB-453 breast cancer cell proliferation. The class given is functional, cell-based. The following applies: Homo sapiens.
The target of assay [3] is T1, Growth factor receptor-bound protein 2. In words: Inhibition of Grb2 SH2 domain binding to erbB-2.
Assay [4] shares this target. In words: In vitro binding affinity for Grb2 SH2 domain.

T1 sequence (P62993 whole entry, the tested form may be a part): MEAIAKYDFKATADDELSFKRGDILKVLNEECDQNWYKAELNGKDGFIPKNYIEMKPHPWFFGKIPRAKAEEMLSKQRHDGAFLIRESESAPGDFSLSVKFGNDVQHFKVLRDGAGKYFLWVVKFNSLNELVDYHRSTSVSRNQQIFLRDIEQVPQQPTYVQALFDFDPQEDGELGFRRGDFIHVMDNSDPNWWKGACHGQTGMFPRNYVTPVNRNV

`NC(=O)C[C@@H]1NC(=O)C2(CCCCC2)NC(=O)C[C@@H](c2ccc(CP(=O)(O)O)cc2)/C=C/C[C@@H](Cc2cccc3ccccc23)CNC1=O`: the IC50 (as a rule, the concentration needed to halve the response being measured) in assay [1] was not below 10000 nM.

As to `NC(=O)C[C@@H]1NC(=O)C2(CCCCC2)NC(=O)[C@@H](CC(=O)O)[C@@H](c2ccc(CP(=O)(O)O)cc2)/C=C/C[C@@H](Cc2cccc3ccccc23)CNC1=O`, the results for the IC50 in assay [2] and in assay [1] were 2 nM and not above 1000 nM, respectively.

Regarding `Cc1ccc2c(ccn2C[C@@H]2C/C=C/[C@H](c3ccc(CP(=O)(O)O)cc3)[C@H](CC(=O)O)C(=O)NC3(CCCCC3)C(=O)N[C@@H](CC(N)=O)C(=O)NC2)c1` [listing 1 of 2 here], the IC50 was 600 nM in the assay on MDA-MB-453 and not above 10 nM in assay [3]. Further, in assay [4], the Kd (in general, the free concentration of one partner at which half of the binding sites on the other are occupied at equilibrium, for simple one-to-one binding) is 0.093 nM.

With `Cc1ccc2c(ccn2C[C@@H]2C/C=C/[C@H](c3ccc(CP(=O)(O)O)cc3)[C@H](CC(=O)O)C(=O)NC3(CCCCC3)C(=O)N[C@@H](CC(N)=O)C(=O)NC2)c1` [listing 2 of 2 here], the Kd in assay [4] was 0.075 nM.
